Values after ≈ are worked out from the molar mass of the structure shown.

The conditions of one data set: 20 °C.
The compound `c1ccc2[nH]ncc2c1` displayed a solubility of 6.99 mM (≈ 826 µg/mL). `c1ccc2[nH]cnc2c1`: the solubility came to 17 mM (≈ 2010 µg/mL).

The same data set, now with this note: 25 °C.
Regarding `CCCCc1c2ccccc2cc2ccc3ccccc3c12`, the solubility came out at 2.99e-05 mM (≈ 0.0085 µg/mL). For the compound `c1ccc2c(c1)ccc1ncccc12`, the solubility amounted to 0.439 mM (≈ 78.7 µg/mL). On the same count and under the same terms, next, `c1ccc2cc3c(cc2c1)-c1cccc2cccc-3c12`: 3.17e-06 mM (≈ 0.0008 µg/mL); `Cc1nc2ccccc2[nH]1`: 11 mM (≈ 1450 µg/mL); `c1ccc2c(c1)-c1ccc3ccc4cccc5cc-2c1c3c45`: 6.88e-07 mM (≈ 0.00019 µg/mL). Turning to `c1ccc2c(c1)c1cccc3ccc4cccc2c4c31`, the solubility was 1.89e-05 mM (≈ 0.00477 µg/mL). This solubility is about 27-fold higher than that of the compound before. Same read-out and setting: in the case of `c1ccc2ccccc2c1` it was 0.242 mM (≈ 31 µg/mL); in that of `c1ccc2nccnc2c1`, 5070 mM (≈ 660000 µg/mL); in that of `c1ccc2cnccc2c1`, 35 mM (≈ 4520 µg/mL). `Cc1c2ccccc2c2ccc3cccc4ccc1c2c43`: the solubility stood at 3e-06 mM (≈ 0.000798 µg/mL). `Cc1c[nH]c2ccccc12` yielded a solubility of 3.8 mM (≈ 498 µg/mL).

The compound `Cc1cccc2c1c(C)cc1cc3ccccc3cc12` gave a solubility of 1.06e-05 mM (≈ 0.00272 µg/mL).

Still in this data set, the particulars now being: 27 °C.
The compound `CCc1c2ccccc2cc2c1ccc1ccccc12` gave a solubility of 0.00016 mM (≈ 0.041 µg/mL).

(Values after the OPERA property sets (Mansouri et al. 2018).)
